Reference: publication PMC11864945 (Frontiers in Pharmacology, 2025)
Read-outs that look alike come from different tables or passages of the source.

How the values were obtained:
[1] = beagle, dog, in vivo; for AUC0–30 / AUC0–inf / Cmax / Kel (elimination rate constant) / Tmax / t1/2 (elimination half–life): po
Method: (§1) Adaptive feeding and observation were carried out for 7 days before the bioequivalence study. Physical examination, blood routine and blood biochemical tests were performed the day before the trial to ensure the health of the dogs. […] The subjects were orally administered a single dose of test or reference formuations with 100 mL of water with a washout period of 2 weeks. Blood samples were collected into heparinized tubes at 0.00 (pre–dose), 0.17, 0.33, 0.67, 1.00, 1.50, 2.00, 2.50, 3.00, 4.00, 5.00, 6.00, 7.00, 8.00, 9.00, 10.00, 11.00, 12.00, 14.00, 24.00 and 30.00 h after oral administration. […] The number of blood collections for drug analysis was 21 samples in each study period. The collected blood samples were centrifuged in a pre–cooled centrifuge at 2,150 g for 10 min, and the separated plasma was transferred to a clean centrifuge tube and frozen in a −80°C refrigerator until analysis.
(§2) The pharmacokinetic parameters for the analytes were evaluated by non–compartmental analysis using Phoenix WinNonlin software version 8.1 (Certara Corporation, Radnor, PA, United States). The maximum plasma concentration (Cmax), the area under the plasma concentration-time curve from time zero to the last sampling time (AUC0–30), the area under the plasma concentration-time curve from time zero to infinity (AUC0–inf), as the primary target, and their geometric mean ratios (test/reference) using log transformed data were assessed to determine whether the formulations were pharmacokinetically equivalent.
(§3) The study was conducted as an open label, balanced, randomized, crossover, two–treatment, two–period, two–sequence and single–dose design to compare the bioavailability of PYR, PRA, FBT, FEN and OXF between two products in 38 healthy beagle dogs. Each subject received a tablet from the test product (Self–developed preparation) and a tablet from reference product (Drontal® Plus Flavor) under fasting conditions with a washout period of 2 weeks.

[2] = in vivo; conditions: beagle, dog, po; for AUC(0-t): AUC0–30; for AUC(0-inf): AUC0–inf; for k el: Kel (elimination rate constant); for half-life: t1/2 (elimination half–life)
Method: as §1, §2, §3

[3] = Stability of the analytes in beagle dog plasma (bench top, refrigerator, freeze–thaw, autosampler, short and long term storage); type: physicochemical; conditions: for Mean stability sample ±SD: n = 5
Method: Stability experiments were conducted in working solutions of the analytes and IS for short term stability at 4°C and stock solutions for long term stability at −20°C, respectively. Peak area ratio responses (Analytes/IS) of stored solutions were compared with those of freshly prepared solutions. The acceptance criterion was ±10.0% deviation when comparing the values of fresh solutions. The stabilities of the analytes in beagle dog plasma were evaluated by analyzing five replicates at LQC and HQC levels. Types of stabilities were following as: bench top stability (room temperature), refrigerator stability (4°C), autosampler stability for processed samples (6°C), freeze–thaw stability (−80°C), short term stability (−20°C) and long term (–80°C) storage stability.

[4] = stock solution in DMF, −20°C
Method: Individual stock solutions of PYR, PRA, FBT, FEN and OXF were prepared for standards and quality control samples in DMF at 1 mg/mL. IS stock solution was also prepared in DMF at 400 μg/mL. The mixed working solutions were obtained by mixing the stock solution in different volumes and then performing appropriate dilution in methanol: water (50:50, V/V). The IS working solution of 200 ng/mL was also prepared with DMF from the primary stock solution. […] The working solutions for the analytes and IS were stored at 4°C and brought to room temperature before use.
Stability experiments were conducted in working solutions of the analytes and IS for short term stability at 4°C and stock solutions for long term stability at −20°C, respectively. Peak area ratio responses (Analytes/IS) of stored solutions were compared with those of freshly prepared solutions. The acceptance criterion was ±10.0% deviation when comparing the values of fresh solutions.

[5] = 20 healthy beagle dogs, identical dose strength, ref Klausz et al., 2015, cited from earlier work
[6] = Bioequivalence / pharmacokinetic study of compound febantel tablets after single oral dose, plasma levels by UPLC–MS/MS; conditions: beagle, dog, 38 beagle dogs, fasting, mean ± SD; for AUC(0-inf): AUC0–inf; for k el: Kel (elimination rate constant); for half-life: t1/2 (elimination half–life)
Method: as §1, §2, §3

[7] = autosampler, 6°C, 55 h, processed plasma samples, HQC
[8] = autosampler, 6°C, 55 h, processed plasma samples, LQC
[9] = bench top, room temperature, 8 h, dog plasma, HQC (added 180 ng/mL PYR/OXF, 675 PRA, 90 FBT, 450 FEN)
[10] = bench top, room temperature, 8 h, dog plasma, HQC, % of nominal concentration
[11] = bench top, room temperature, 8 h, dog plasma, LQC (added 12 ng/mL PYR/OXF, 45 PRA, 6 FBT, 30 FEN)
[12] = bench top, room temperature, 8 h, dog plasma, LQC, % of nominal concentration
[13] = freeze–thaw after 3rd cycle at −80°C, dog plasma, HQC
[14] = freeze–thaw after 3rd cycle at −80°C, dog plasma, LQC
[15] = long term, −80°C, 120 days, dog plasma, HQC
[16] = long term, −80°C, 120 days, dog plasma, LQC
[17] = refrigerator, 4°C, 30 h, dog plasma, HQC
[18] = refrigerator, 4°C, 30 h, dog plasma, LQC
[19] = short term, −20°C, 48 h, dog plasma, HQC
[20] = short term, −20°C, 48 h, dog plasma, LQC
[21] = reference product (R), single oral tablet
[22] = test product (T), single oral tablet

Compound | Mean stability sample ±SD [3, 7] [ng/mL] | Accuracy [3, 8] [%] | Mean stability sample ±SD [3, 8] [ng/mL] | Mean stability sample ±SD [3, 9] [ng/mL] | Accuracy [3, 10] [%] | Mean stability sample ±SD [3, 11] [ng/mL] | Accuracy [3, 12] [%] | Accuracy [3, 13] [%] | Mean stability sample ±SD [3, 13] [ng/mL] | Accuracy [3, 14] [%] | Mean stability sample ±SD [3, 14] [ng/mL] | Accuracy [3, 15] [%] | Mean stability sample ±SD [3, 15] [ng/mL] | Accuracy [3, 16] [%] | Mean stability sample ±SD [3, 16] [ng/mL] | Accuracy [3, 17] [%] | Mean stability sample ±SD [3, 17] [ng/mL] | Accuracy [3, 18] [%] | Mean stability sample ±SD [3, 18] [ng/mL] | Accuracy [3, 19] [%] | other results
COC(=O)Nc1nc2ccc(Sc3ccccc3)cc2[nH]1 [Fenbendazole, fenbendazole] | 457.91 ± 24.20 | 100.87 | 30.26 ± 0.97 | 412.09 ± 6.95 | 91.58 | 28.75 ± 0.77 | 95.83 | 99.49 | 447.72 ± 13.36 | 98.82 | 29.65 ± 1.05 | 101.31 | 455.87 ± 11.17 | 102.31 | 30.69 ± 0.89 | 97.40 | 438.32 ± 14.73 | 97.04 | 29.11 ± 1.92 | 104.58 | AUC0–30 [1]: 1,689.33 ± 881.68 h. ng/mL; AUC0–inf [1]: 1,893.90 ± 934.66 h ng/mL; Cmax [1]: 212.35 ± 104.41 ng/mL; Kel (elimination rate constant) [1]: 0.15 ± 0.07 h⁻¹; Tmax [1]: 5.20 ± 3.10 h; t1/2 (elimination half–life) [1]: 5.76 ± 3.70 h; AUC(0-t) [2]: 1440 ng·h/mL; AUC(0-inf) [2]: 1680 ng·h/mL; k el [2]: 4.44e-05 s⁻¹; Tmax [2]: 5 ± 3.56 h; half-life [2]: 6.96 ± 8.33 h; Mean stability sample ±SD [3, 19]: 470.60 ± 13.89 ng/mL; Accuracy [3, 20]: 103.13%; Mean stability sample ±SD [3, 20]: 30.94 ± 2.18 ng/mL
[2H]C([2H])([2H])OC(=O)Nc1nc2ccc(Sc3ccccc3)cc2[nH]1 [IS, Fenbendazole–D3] |  |  |  |  |  |  |  |  |  |  |  |  |  |  |  |  |  |  |  |  | Long–term stability of stock solution (time remained stable) [4]: 104 days
COC(=O)Nc1nc2ccc([S+]([O-])c3ccccc3)cc2[nH]1 (centres unmarked) [Qxfendazole, oxfendazole] | 192.72 ± 8.41 | 106.85 | 12.82 ± 0.85 | 162.16 ± 2.99 | 90.09 | 12.08 ± 1.02 | 100.65 | 97.23 | 175.01 ± 5.08 | 100.97 | 12.12 ± 0.84 | 97.64 | 175.76 ± 5.23 | 93.96 | 11.28 ± 0.62 | 96.84 | 174.31 ± 5.37 | 95.50 | 11.46 ± 0.74 | 105.41 | AUC(0-t) ([6]; AUC0–30, reference product (R), single oral tablet): 2100 ng·h/mL; AUC(0-t) ([6]; AUC0–30, test product (T), single oral tablet): 1790 ng·h/mL; AUC(0-inf) [6, 21]: 2550 ng·h/mL; AUC(0-inf) [6, 22]: 1910 ng·h/mL; Cmax ([6]; reference product (R, Drontal Plus), single oral tablet): 224 ± 112 ng/mL; Cmax ([6]; test product (T), single oral tablet (150 mg FBT, 144 mg pyrantel pamoate, 50 mg PRA)): 184 ± 95.7 ng/mL; k el [6, 21]: 6.11e-05 s⁻¹; k el [6, 22]: 6.67e-05 s⁻¹; Tmax [6, 21]: 6.97 ± 3.47 h; Tmax [6, 22]: 7.08 ± 2.65 h; half-life [6, 21]: 4.17 ± 2.45 h; half-life [6, 22]: 3.83 ± 3.03 h; Accuracy [3, 7]: 107.07%; Mean stability sample ±SD [3, 19]: 189.73 ± 8.17 ng/mL; Accuracy [3, 20]: 98.29%; Mean stability sample ±SD [3, 20]: 11.80 ± 0.79 ng/mL

Now from value to compound, other results behind:

Mean stability sample ±SD [3, 7] [ng/mL] | Accuracy [3, 8] [%] | Mean stability sample ±SD [3, 8] [ng/mL] | Mean stability sample ±SD [3, 9] [ng/mL] | Accuracy [3, 10] [%] | Mean stability sample ±SD [3, 11] [ng/mL] | Accuracy [3, 12] [%] | Accuracy [3, 13] [%] | Mean stability sample ±SD [3, 13] [ng/mL] | Accuracy [3, 14] [%] | Mean stability sample ±SD [3, 14] [ng/mL] | Accuracy [3, 15] [%] | Mean stability sample ±SD [3, 15] [ng/mL] | Accuracy [3, 16] [%] | Mean stability sample ±SD [3, 16] [ng/mL] | Accuracy [3, 17] [%] | Mean stability sample ±SD [3, 17] [ng/mL] | Accuracy [3, 18] [%] | Mean stability sample ±SD [3, 18] [ng/mL] | Accuracy [3, 19] [%] | Compound | other results
729.27 ± 27.29 | 103.68 | 46.65 ± 1.23 | 645.65 ± 11.69 | 95.65 | 44.28 ± 0.95 | 98.41 | 99.19 | 669.52 ± 14.97 | 98.12 | 44.15 ± 2.42 | 91.14 | 615.17 ± 19.69 | 94.44 | 42.50 ± 4.13 | 96.95 | 654.44 ± 29.69 | 98.16 | 44.17 ± 3.20 | 108.18 | O=C(C1CCCCC1)N1CC(=O)N2CCc3ccccc3C2C1 (centres unmarked) [Praziquantel, praziquantel] | GMR (Test/Reference) of AUC0–30 [1]: 101.83%; GMR (Test/Reference) of AUC0–inf [1]: 101.79%; GMR (Test/Reference) of Cmax [1]: 97.63%; AUC0–30 [1]: 3,267.67 ± 1827.15 h. ng/mL; AUC0–inf [1]: 3,317.89 ± 1838.60 h ng/mL; Cmax [1]: 957.04 ± 537.42 ng/mL; Kel (elimination rate constant) [1]: 0.45 ± 0.12 h⁻¹; Tmax [1]: 1.48 ± 0.67 h; t1/2 (elimination half–life) [1]: 1.65 ± 0.46 h; AUC(0-t) [2]: 3320 ng·h/mL; AUC(0-inf) [2]: 3370 ng·h/mL; k el [2]: 0.000122 s⁻¹; Tmax [2]: 1.45 ± 1.05 h; half-life [2]: 1.66 ± 0.41 h; Accuracy [3, 7]: 108.04%; Mean stability sample ±SD [3, 19]: 730.20 ± 19.11 ng/mL; Accuracy [3, 20]: 100.34%; Mean stability sample ±SD [3, 20]: 45.15 ± 3.68 ng/mL
194.53 ± 3.27 | 107.25 | 12.87 ± 0.28 | 163.22 ± 1.45 | 90.68 | 11.30 ± 0.66 | 94.15 | 94.84 | 170.71 ± 4.98 | 92.15 | 11.06 ± 0.55 | 97.25 | 175.05 ± 5.76 | 88.57 | 10.63 ± 0.11 | 97.21 | 174.99 ± 6.96 | 97.18 | 11.66 ± 0.93 | 107.76 | CN1CCCN=C1/C=C/c1cccs1 [Pyrantel, pyrantel] | GMR (Test/Reference) of AUC0–30 [1]: 110.18%; GMR (Test/Reference) of AUC0–inf [1]: 111.84%; GMR (Test/Reference) of Cmax [1]: 112.68%; AUC0–30 [1]: 378.04 ± 102.58 ng·h/mL; AUC0–inf [1]: 429.16 ± 117.30 ng·h/mL; Cmax [1]: 69.17 ± 21.12 ng/mL; Kel (elimination rate constant) [1]: 0.20 ± 0.08 h⁻¹; Tmax [1]: 2.87 ± 1.06 h; t1/2 (elimination half–life) [1]: 4.87 ± 4.38 h; AUC(0-t) [2]: 423 ± 140 ng·h/mL; AUC(0-inf) [2]: 489 ± 186 ng·h/mL; k el [2]: 5.28e-05 s⁻¹; Tmax [2]: 3.08 ± 0.98 h; half-life [2]: 4.27 ± 2.03 h; Accuracy [3, 7]: 108.07%; Mean stability sample ±SD [3, 19]: 193.96 ± 8.82 ng/mL; Accuracy [3, 20]: 100.41%; Mean stability sample ±SD [3, 20]: 12.05 ± 0.92 ng/mL; Cmax ([5]; reference products): 81.1 ng/mL; Cmax ([5]; test products): 78.5 ng/mL
